Read-outs that look alike come from different tables or passages of the source.
What was measured:
[1] = tested on: histone H3 acetylation in lymphocytes; assay type: in vivo, human; details: peripheral lymphocytes
Method: The levels of histone H3 acetylation in lymphocytes (based on FSC/SCC scatter) were determined by flow cytometry from samples taken before (0 h) and at the end of each RMD infusion (RMD1−2−3) (4 h), at 8 and 24 h (+1 day) RMD1, and at 72 h (+3 days) and 7 days after (RMD1−2−3). Cryopreserverd PBMC were thawed 4 h before use, and 500,000 cells were blocked with 600 ul of PBS/10% FBS for 20 min and stained with polyclonal rabbit anti-acetyl histoneH3 (10 μg/ml, MerckMillipore #06–599) or normal rabbit serum (control stain, LifeTechnologies #10510) for 30 min. Cells were washed and subsequently incubated with donkey anti-rabbit IgG(H+L) (6 μg/mL, LifeTechnologies #A21206) for 30 min at room temperature in the dark. Cells were washed, re-suspended in 150 μl PBS and analyzed. ~50,000 events were acquired per sample. The median fluorescence intensity (MFI) for each sample was calculated by substracting the background MFI (isotype control stain) from the anti-acetyl histoneH3 stain.

CD3+ T cells = assay type: in vivo, human; details: over the three RMD doses; increases 3 days after each dose, maintained up to 1 week after RMD3
Method: Activation of T cells was determined based upon HLA-DR expression on CD3^+ T cells. Cryopreserved PBMC were thawed, and 1,000,000 cells were stained with CD3 APC-Cy7, CD4 FITC, CD8 BV510 and HLA-DR PECy7 (BioLegend #344818, 300538, 301048, and 307616, respectively). Cells were collected on an LSRII instrument (BD), and data analyzed according to the gating criteria shown in Supplementary Figure 1 using FlowJo 10 software.

HIV-1 [2] = assay type: in vivo, human
HIV-1 [3] = assay type: in vivo, human; details: ultrasensitive single copy assay, during RMD1−2−3
Method: To evaluate HIV-1 RNA below 20 copies/ml, 4–8 ml of plasma samples taken before (0 h) and at the end of each RMD infusion (4 h), at 8 and 24 h (+1 day) after RMD1, and 72 h (+3 days) and 7 days after RMD1−2−3 were ultracentrifugated at 170,000 g at 4°C for 30 min and viral RNA was extracted automatically using the m2000sp Abbot device. HIV-1 RNA copies were quantified using the Abbott Real-Time HIV-1 assay (Abbott Molecular Inc.) and in-house calibration curve sets as described ([38]). The limit of detection (2 HIV-1 RNA copies/mL) was calculated relative to the plasma volume.

[4] = tested on: early-treated HIV-1-infected individuals; details: in vivo
CD4+ T cells = details: median; 3 days after each RMD administration; not fully recovered by day 7 after RMD3
[5] = 5 mg/m^2 BSA i.v. over 4 hours; for RMD-PK AUC1, Med: plasma, AUC0-inf non-compartmental from simulated individual concentrations

## C/C=C1\NC(=O)[C@H]2CSSCC/C=C/[C@H](CC(=O)N[C@H](C(C)C)C(=O)N2)OC(=O)[C@H](C(C)C)NC1=O [RMD, Romidepsin]
[1]; flow cytometry
  Time of return of acH3 to baseline values after each dose: 3 days
[1]; flow cytometry MFI, remained high during 4 h
  Histone H3 acetylation (acH3) during each RMD infusion: increased rapidly
CD3+ T cells
  T-cell activation (proportion of CD3+/HLA-DR+ cells): increased in a progressive manner
HIV-1 [2]; at any time point after RMD administrations
  Individuals with increases in CA HIV-1 RNA above 2-fold: 80%
HIV-1 [2]; peripheral CD4+ T cells, normalized to TBP, relative to pre-RMD1, more pronounced after RMD2 and RMD3
  HIV-1 transcription (cell-associated HIV-1 RNA): transiently increased
HIV-1 [2]; without correction by housekeeping gene, relative to before RMD1, normalization beyond 4 hours
  Median increase of viral expression (CA HIV-1 RNA) at the end of each RMD infusion: higher than 2.5 fold
HIV-1 [3]
  Kinetics of plasma HIV-1 RNA levels: did not follow a clear pattern
[4]
  AE recorded after RMD1−2−3: 204 AE
  Abdominal distension, Grade 1 n: 4 n
  Abdominal distension, Grade 2 n: 1 n
  Abdominal distension, Grade 3 n: 0 n
  Abdominal distension, Grade 4 n: 0 n
  Abdominal distension, Total n (%): 5 (33) n (%)
  Abdominal pain, Grade 1 n: 5 n
  Abdominal pain, Grade 2 n: 2 n
  Abdominal pain, Grade 3 n: 0 n
  Abdominal pain, Grade 4 n: 0 n
  Abdominal pain, Total n (%): 7 (47) n (%)
  Anorexia, Grade 1 n: 8 n
  Anorexia, Grade 2 n: 1 n
  Anorexia, Grade 3 n: 0 n
  Anorexia, Grade 4 n: 0 n
  Anorexia, Total n (%): 9 (60) n (%)
  Anxiety, Grade 1 n: 0 n
  Anxiety, Grade 2 n: 1 n
  Anxiety, Grade 3 n: 0 n
  Anxiety, Grade 4 n: 0 n
  Anxiety, Total n (%): 1 (7) n (%)
  Constipation, Grade 1 n: 4 n
  Constipation, Grade 2 n: 2 n
  Constipation, Grade 3 n: 0 n
  Constipation, Grade 4 n: 0 n
  Constipation, Total n (%): 6 (40) n (%)
  Dry mouth, Grade 1 n: 1 n
  Dry mouth, Grade 2 n: 0 n
  Dry mouth, Grade 3 n: 0 n
  Dry mouth, Grade 4 n: 0 n
  Dry mouth, Total n (%): 1 (7) n (%)
  ECG: ST-elevation, Grade 1 n: 1 n
  ECG: ST-elevation, Grade 2 n: 0 n
  ECG: ST-elevation, Grade 3 n: 0 n
  ECG: ST-elevation, Grade 4 n: 0 n
  ECG: ST-elevation, Total n (%): 1 (7) n (%)
  Fatigue, Grade 1 n: 9 n
  Fatigue, Grade 2 n: 5 n
  Fatigue, Grade 3 n: 0 n
  Fatigue, Grade 4 n: 0 n
  Fatigue, Total n (%): 14 (93) n (%)
  Grade 1-2 laboratory abnormalities related to RMD: 22 n
  Grade 4 creatinine kinase elevation: one
  Headache, Grade 1 n: 9 n
  Headache, Grade 2 n: 5 n
  Headache, Grade 3 n: 0 n
  Headache, Grade 4 n: 0 n
  Headache, Total n (%): 14 (93) n (%)
  Hypophosphatemia: 8 events
  Hypotension, Grade 1 n: 0 n
  Hypotension, Grade 2 n: 1 n
  Hypotension, Grade 3 n: 0 n
  Hypotension, Grade 4 n: 0 n
  Hypotension, Total n (%): 1 (7) n (%)
  Individuals who vomited the days of RMD administration, percent: 27%
  Libido decrease, Grade 1 n: 0 n
  Libido decrease, Grade 2 n: 1 n
  Libido decrease, Grade 3 n: 0 n
  Libido decrease, Grade 4 n: 0 n
  Libido decrease, Total n (%): 1 (7) n (%)
  Metallic taste, Grade 1 n: 5 n
  Metallic taste, Grade 2 n: 1 n
  Metallic taste, Grade 3 n: 0 n
  Metallic taste, Grade 4 n: 0 n
  Metallic taste, Total n (%): 6 (40) n (%)
  Myalgia, Grade 1 n: 1 n
  Myalgia, Grade 2 n: 1 n
  Myalgia, Grade 3 n: 0 n
  Myalgia, Grade 4 n: 0 n
  Myalgia, Total n (%): 2 (13) n (%)
  Nausea, Grade 1 n: 4 n
  Nausea, Grade 2 n: 7 n
  Nausea, Grade 3 n: 0 n
  Nausea, Grade 4 n: 0 n
  Nausea, Total n (%): 11 (73) n (%)
  Palpitations, Grade 1 n: 3 n
  Palpitations, Grade 2 n: 0 n
  Palpitations, Grade 3 n: 0 n
  Palpitations, Grade 4 n: 0 n
  Palpitations, Total n (%): 3 (20) n (%)
  Participants with grade 4 AE, sepsis by Shigella sonnei (SAE): One
  Rash, Grade 1 n: 0 n
  Rash, Grade 2 n: 2 n
  Rash, Grade 3 n: 0 n
  Rash, Grade 4 n: 0 n
  Rash, Total n (%): 2 (13) n (%)
  Sepsis by Shigella sonnei (SAE), Grade 1 n: 0 n
  Sepsis by Shigella sonnei (SAE), Grade 2 n: 0 n
  Sepsis by Shigella sonnei (SAE), Grade 3 n: 0 n
  Sepsis by Shigella sonnei (SAE), Grade 4 n: 1 n
  Sepsis by Shigella sonnei (SAE), Total n (%): 1 (7) n (%)
  Somnolence, Grade 1 n: 1 n
  Somnolence, Grade 2 n: 0 n
  Somnolence, Grade 3 n: 0 n
  Somnolence, Grade 4 n: 0 n
  Somnolence, Total n (%): 1 (7) n (%)
  Sweating, Grade 1 n: 2 n
  Sweating, Grade 2 n: 2 n
  Sweating, Grade 3 n: 0 n
  Sweating, Grade 4 n: 0 n
  Sweating, Total n (%): 4 (27) n (%)
  Thrombocytopenia: 5 events
  Tolerability at the regimen and dose administered: well-tolerated
  Vomits, Grade 1 n: 4 n
  Vomits, Grade 2 n: 0 n
  Vomits, Grade 3 n: 0 n
  Vomits, Grade 4 n: 0 n
  Vomits, Total n (%): 4 (27) n (%)
CD4+ T cells
  Transient decrease of CD4+ T-cell counts: 248 cells/mm^3
[5]; MAP - Controllers (n=3)
  RMD-PK AUC1, Med: 473.5
[5]; MAP - Non Controllers (n=10)
  RMD-PK AUC1, Med: 392.9
[5]; individual profiles simulated with population PK model, LC-MS/MS
  RMD concentrations in plasma by 24 h after dosing: nearly undetectable levels
